Source: patent US20250268856A1, “Pain Relieving Method” (Animal Ethics Pty Ltd, priority 2019, published 2025)
Several values for one entry are separate records, joined by “and”; a condition that tells them apart may be missing. Equal entries are not always repeated.

Tests used:
[1] = Study 1: porcine plasma profiles of tetracaine and meloxicam applied topically to the castration surgical site; assay type: in vivo
Procedure: Dose Calculation, Preparation & Administration: Study animals were dosed according to the Treatment Regime outlined in Table 4 below. No preparation of any of the IVPs was performed other than inversion of each container 2-3 times prior to treatment.
Blood Analysis: Blood samples were collected from allocated animals via anterior vena-caval puncture using 21G, 1.5″ needle attached to 10 mL syringes and transferred immediately into 5 mL lithium heparin blood tubes. Blood samples were processed for extraction of plasma on the day of collection, which for each sample was stored in duplicate, frozen (˜−18° C.). Replicate 1 plasma samples were forwarded frozen to a laboratory for tetracaine and meloxicam analyses after the conclusion of the animal phase.
Study animals were dosed according to the application rates detailed in Table 4. No preparation of any of the IVPs was required prior to dosing.
Castration was performed using a sterile scalpel as per the following process: • 1. Piglet to be gently restrained (for a minimum of 30 seconds prior to incision) in Kerble piglet cradle in order to expose the ano-genital region of the piglet. • 2. Only when piglet is settled, incise scrotum (including tunica) with one single transverse incision to expose and exteriorise each testis; • 3. Immediately apply treatment (40% total dose to each side) to coat the exposed spermatic cord and the cut skin edge. […] Wait 30 seconds; • 5. The testis may then be removed by severing the cord as per routine procedure. Remove each testis as per normal procedure. • 6. Apply the remaining 20% of the total dose evenly of the surface of the surgical wound.

[2] = Study 2: motor response scores to the procedure of castration; assay type: in vivo, piglets; conditions: during the procedure (castration), versus placebo, topical to open wound
Procedure: (§1) Study 2: A follow-up study confirmed efficacy of meloxicam analgesic effects when applied to piglets via topical wound application either alone or in combination with tetracaine 2%. Piglets were treated with placebo, meloxicam 0.1%, tetracaine 2% or a combination of tetracaine 2% and meloxicam 1%, otherwise formulated as above, and examined for clinical efficacy via documentation of motor response scores to a) the procedure of castration, and b) pre- and post-operative mechanical sensory testing of the wound site using Von-Frey filament testing.

[3] = Study 2: post-operative mechanical sensory testing of the wound site using Von-Frey filament testing (motor response scores); assay type: in vivo, piglets; conditions: versus placebo
Procedure: as §1

[4] = In-house trials of tetracaine applied directly to the open castration wound; assay type: in vivo, piglets; conditions: applied to open castration wound 20 seconds prior to severing cordal tissues, 1 ml/kg of 2% or 5% solution
From the text: Tetracaine is a rapid onset surface anaesthetic, that is rapidly metabolised by plasma-esterases, such that may induce high potency local effects with minimal systemic effects. […] Topical wound application formulations were thus developed to examine the potential for systemic NSAID analgesic drug (meloxicam) delivery via topical wound application, applied alone, or combined with topical local anaesthetic (tetracaine) to the castration wound in piglets. Topical wound application formulations were developed containing meloxicam alone, tetracaine alone and combinations of meloxicam and tetracaine to examine systemic absorption and clinical effects.

[5] = male, pig, in vivo

Cc1cnc(NC(=O)C2=C(O)c3ccccc3S(=O)(=O)N2C)s1 [Meloxicam]
Meloxicam concentration in porcine plasma ([1]; 15 min post-treatment, individual piglets, topical to castration wound): 144.8 ng/mL and 119.8 ng/mL and 81.8 ng/mL and 88.2 ng/mL | Meloxicam concentration in porcine plasma ([1]; 30 min post-treatment, individual piglets, topical to castration wound): 166.0 ng/mL and 94.6 ng/mL and 101.3 ng/mL and 104.8 ng/mL | Meloxicam concentration in porcine plasma ([1]; 1 hr post-treatment, individual piglets, topical to castration wound): 102.9 ng/mL and 118.0 ng/mL | Meloxicam concentration in porcine plasma ([1]; 2 hr post-treatment, individual piglets, topical to castration wound): 126.7 ng/mL and 238.9 ng/mL | Meloxicam concentration in porcine plasma ([1]; 4 hr post-treatment, individual piglets, topical to castration wound): 100.9 ng/mL and 458.7 ng/mL and 63.3 ng/mL and 230.0 ng/mL and 244.6 ng/mL and 113.2 ng/mL | Sustained plasma levels of meloxicam ([1]; group level (FIG. 4)): 100 to 200 ng/mL | concentration at 15 min ([1]; male, pig, plasma, topical, 15 min post-treatment, individual piglets, topical to castration wound): 86.9 ng/mL | concentration at 30 min ([1]; male, pig, plasma, topical, 30 min post-treatment, individual piglets, topical to castration wound): 109 ng/mL | concentration at 1 hr ([1]; male, pig, plasma, topical, 1 hr post-treatment, individual piglets, topical to castration wound): 190 ng/mL | concentration at 2 hr ([1]; male, pig, plasma, topical, 2 hr post-treatment, individual piglets, topical to castration wound): 126 ng/mL | Time of peak plasma meloxicam level ([1]; post-treatment, group level (FIGS. 4, 5)): 4 h

CCCCNc1ccc(C(=O)OCCN(C)C)cc1 [Tetracaine]
Time of peak plasma tetracaine level ([1]; male, pig, in vivo): 1 h | Motor response scores [2]: significant reduction | Motor response scores ([3]; 1 minute following the procedure): significant reduction | Motor response scores ([3]; 1 hour following the procedure): anaesthetic effects were still evident | Motor response scores ([3]; 12 hours following the procedure): rebound hyperaesthesia | Pain during castration and in the first minutes and 1-2 hours following [4]: effective to ameliorate pain

CCCCN1CCCCC1C(=O)Nc1c(C)cccc1C (stereo not drawn) [bupivacaine]
Period plasma levels remained at those levels [5]: 24 h
